Experiments:
Assay type in all cases: in vivo, rat
[1] = system: STZ diabetic rats; assay: Serum total protein, creatinine and uric acid in STZ diabetic rats; conditions: Glibenclamide 10 mg/kg p.o. (Group III), 21 days, ± S.E, n=6
Protocol: (§1) The garlic tablet at the said dosages was subjected to efficacy studies in diabetic animal models. For the efficacy studies on diabetes, studies were carried out using male Wistar albino rats (150-200 g). The animals were grouped and housed in polyacrylic cages with not more than six animals per cage and maintained under standard laboratory conditions (temperature 25°±2° C.) with dark and light cycle (12/12 h). The animals were fed with standard pellet diet supplied by Hindustan Lever Ltd., India and fresh water ad libitum. All the animals were acclimatized to laboratory condition for a week before commencement of experiment. […] were divided into five groups for further experiments.
(§2) Rats were randomly allocated to five groups. Diabetes was induced by a single intraperitoneal injection of 120 mg/kg of Streptozotocin (STZ) in citrate buffer (0.1 M, pH 4.5). Group I consisted of normal healthy rats that were administered 1 ml/kg of 0.5% carboxy methylcellulose (CMC) solution orally. Group II consisted of diabetic rats used as control and were administered orally 1 ml/kg of 0.5% carboxy methylcellulose solution. Groups III consisted of diabetic rats treated daily with oral administration of 10 mg/kg of glibenclamide. Group IV consisted of diabetic rats treated orally with 500 mg of tablet suspended in 0.5% carboxy methylcellulose solution. Group V consisted of diabetic rats treated orally with 1000 mg of tablet suspended in 0.5% carboxy methylcellulose solution.
(§3) All the test drugs were administered for 21 days. Blood glucose levels were estimated on the 1st, 3rd, 7th, 14th and 21st day by collecting tail vein using glucometer during drug treatment. On the 22nd day, the blood was collected for biochemical estimation by sinus puncture under anesthesia. The animals were sacrificed by cervical dislocation and organs were removed for histopathological studies.

[2] = system: STZ diabetic rats; assay: Hemoglobin, glycosylated hemoglobin and plasma insulin in STZ diabetic rats; conditions: Glibenclamide 10 mg/kg p.o. (Group III), 21 days, ± S.E, n=6
Protocol: as §1
as §2, with “Group V consisted of diabetic rats treated orally with 1000 mg of tablet suspended in 0.5% carboxy methylcellulose solution.” left out

[3] = Body weight development in STZ diabetic rats; conditions: Glibenclamide 10 mg/kg p.o. (Group III), ± S.E, n=6
Protocol: as §1
as §2, with “Group V consisted of diabetic rats treated orally with 1000 mg of tablet suspended in 0.5% carboxy methylcellulose solution.” left out

[4] = system: STZ diabetic rats; assay: Serum AST, ALT and ALP in STZ diabetic rats; conditions: Glibenclamide 10 mg/kg p.o. (Group III), 21 days, ± S.E, n=6
Protocol: as §1, §2, §3

[5] = system: STZ induced diabetic rats; assay: Blood glucose in STZ induced diabetic rats (glucometer, tail vein); conditions: Glibenclamide 10 mg/kg p.o. daily, n=6
Protocol: as §1, §2, §3

Compound: COc1ccc(Cl)cc1C(=O)NCCc1ccc(S(=O)(=O)NC(=O)NC2CCCCC2)cc1 [Glibenclamide, glibenclamide]
- Creatinine [1]: 1.04 ± 0.01^b** mg/dl
- Protein [1]: 126.4 ± 2.84^b*** mg/dl
- Uric acid [1]: 1.57 ± 0.06^b*** mg/dl
- HBA1C [2]: 0.17 ± 0.008^b*** % Hb
- Plasma Insulin [2]: 16.4 ± 0.27^b*** μU/ml
- Body Weight Final ([3]; 21 days): 161.13 ± 2.14^b* g
- Body Weight Initial [3]: 163.6 ± 1.42 g
- ALP [4]: 171.9 ± 4.07 ^b*** μmoles of phenol liberated/min/mg of protein
- ALT [4]: 56.4 ± 1.54 ^b*** μmoles of pyruvate/h/mg/of protein
- AST [4]: 161.0 ± 64.0 ^b*** μmoles of pyruvate/h/mg/of protein
- Blood Sugar, 1 Day ([5]; day 1, mean): 290.50 mg/dL
- Blood Sugar, 3 Day ([5]; day 3, mean): 210.17 mg/dL
- Blood Sugar, 7 Day ([5]; day 7, mean): 157.67 mg/dL
- Blood Sugar, 14 Day ([5]; day 14, mean): 124.50 mg/dL
- Blood Sugar, 21 Day ([5]; day 21, mean): 113.17 mg/dL
